Measurements: US20260258000A1, “THYMIDYLATE SYNTHASE INHIBITORS AND USES THEREOF” (University of Florida Research Foundation, Incorporated, priority 2021, published 2026)
“Also recorded” adds a separate entry of the source.

Assays:
CM cells = assay: Cell viability (MTS) assay, CM; type: cell-based; conditions: 72 hour drug incubation (FIG. 1C)
BON cells = assay: Cell viability (MTS) assay, BON; type: cell-based; conditions: 72 hour drug incubation (FIG. 1C)
[1] = tested on: TS protein expression in PANC-1 cells; assay: Immunoblot analysis of TS expression in PANC-1 cells; type: cell-based; conditions: PANC-1 cells treated 72 hours (FIG. 1D)
Method: To prepare lysates, 0.5×10^6 PA NC-1 cells were seeded in 100 mm dishes in 10 ml DMEM High glucose and 24 hours later, 5-FU (Sigma) or 19-S were added at the specified concentrations. Cells were harvested after 72 hours and cell pellets were stored at −80° C. For GI50 determination, 3000 MIA PaCa-2 cells. […] After 72 hours, cell viability was assessed by reduction of MTS ((3-4,5-dimethylthiazol-2-yl)-5-(3-carboxymethoxyphenol)-2-(4-sulfophenyl)-2H-tetrazolium) using Cell Titer 96 R Aqueous One Solution Cell Proliferation Assay Kit (Promega), following manufacturer's recommendations. Chemiluminescent output (integration time 1000 ms) was measured on a SpectraMax M3® (Molecular devices). […]
Protein lysates were generated using RIPA buffer (Santa Cruz) for 20 minutes on ice, followed by 15 minutes centrifugation at 13,000 rpm, at 4° C. […] Protein was quantified using Bradford Assay (BioRad) following manufacturer's recommendations, standard curves were generated with bovine serum albumin (Fisher).
20 μg of total protein lysate was loaded per lane of 10% Tris Glycine Gel (Invitrogen). […] Signal was detected using West Pico Plus chemiluminescent substrate (Thermo Scientific) following manufacturer's recommendations. […] For protein level quantification relative to loading control, densitometric analysis was performed by ImageJ software.

[2] = target: T1, human thymidylate synthase (hTS) (Homo sapiens, UniProt P04818); assay: Tritium based TS catalytic activity assay; type: biochemical; conditions: for inhibition of TS catalytic activity, 19-S series library screen: 250 uM (FIG. 4A); for TS inhibition at decreasing drug concentrations: compared with Pem and MTX controls (FIG. 4C); for TS activity (conversion of dUMP): drug 250 μM, 10 μg/mL bacterially expressed TS protein (FIG. 1B)
T1 construct: 6xHis (N); made in house; host or cells: E. coli BL21 (DE3)
Method: The catalytic activity of TS was determined by measuring the release of [31] from [5-3H]dUMP (ViTrax, VT122) resulting from the conversion of dUMP to dTMP as previously described12,33. […] Reactions were performed in 50 mM KH2PO4 (Sigma Aldrich, P0662) at pH 7.2 using 2 μg of purified human TS. Reactions were performed in a final volume of 200 μL with 100 mM β-mercaptoethanol (Sigma Aldrich, M7522), 40 μM dUMP (Sigma Aldrich, D3876), 100 μM 5,10-mTHF, and the [5-3H]dUMP tracer (ViTrax, VT122) accounting for 0.06% of the final dUMP concentration in the reaction. […] Reactions were initiated by the addition of the dUMP substrate and 5,10-mTHF cofactor, then incubated at 37° C. for 30 minutes. […] Reactions were terminated by the addition of 100 μL of ice-cold 20% trichloroacetic acid (Sigma Aldrich, T6399), then excess [5-31-]dUMP was removed by the addition of 200 μL of an albumin-coated activated charcoal solution. The albumin-coated activated charcoal solution was prepared by mixing 10 g of acid-washed activated dextran coated charcoal (Sigma Aldrich, C6241) with 2.5 g of bovine albumin (Sigma Aldrich, A1933) in 100 mL of H2O. The suspension was incubated at room temperature for 30 minutes and then centrifuged for 30 minutes at 10,000×g. […] For all experiments, positive control reactions were performed with no drug representing 100% TS activity, and negative control reactions were performed with no TS enzyme or no 5,10-mTHF substrate representing 0% TS activity. All assays were performed in biological duplicate and technical duplicate. Results were analyzed using GraphPad Prism 8.

MIA PaCa-2 cells = assay: Cell viability (MTS) assay, MIA PaCa-2; type: cell-based; conditions: Homo sapiens; MIA PaCa-2, 72-hour treatment, highest concentration 350 μM (FIG. 4E)
Method: To prepare lysates, 0.5×10^6 PA NC-1 cells were seeded in 100 mm dishes in 10 ml DMEM High glucose and 24 hours later, 5-FU (Sigma) or 19-S were added at the specified concentrations. Cells were harvested after 72 hours and cell pellets were stored at −80° C. For GI50 determination, 3000 MIA PaCa-2 cells. […] After 72 hours, cell viability was assessed by reduction of MTS ((3-4,5-dimethylthiazol-2-yl)-5-(3-carboxymethoxyphenol)-2-(4-sulfophenyl)-2H-tetrazolium) using Cell Titer 96 R Aqueous One Solution Cell Proliferation Assay Kit (Promega), following manufacturer's recommendations. Chemiluminescent output (integration time 1000 ms) was measured on a SpectraMax M3® (Molecular devices). Data were normalized to max/minutes and plotted in GraphPad Prism for GI50 determination. Chemical synthesis details, including characterization of each compound, can be found in the supporting information document associated with this publication.

DHFR = target: T2, DHFR (Homo sapiens, UniProt P00374); assay: Absorbance-based DHFR activity assay; type: biochemical; conditions: for DHFR inhibition at reduced inhibitor concentrations: compared with Pem and MTX controls (FIG. 4D)
T2 construct: purchased Sigma D6566
T2 sequence (P00374 1-187): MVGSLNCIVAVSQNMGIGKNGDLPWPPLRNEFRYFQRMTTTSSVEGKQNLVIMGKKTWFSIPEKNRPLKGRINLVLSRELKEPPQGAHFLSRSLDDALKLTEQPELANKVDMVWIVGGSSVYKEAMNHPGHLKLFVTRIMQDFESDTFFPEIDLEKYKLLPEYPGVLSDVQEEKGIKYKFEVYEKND
Method: 6 μL NADPH solution and 5 μL of dihydrofolic acid (DHFR substrate) (Sigma, D7006).

human TS = target: T3, human TS (Homo sapiens, UniProt P04818); assay: Competitive drug displacement assay (tritium TS assay); type: biochemical; conditions: TS pre-incubated with drug; for dUMP conversion with increasing 5,10-mTHF concentration (drug displacement): 5,10-mTHF up to 5×; for dUMP conversion with increasing dUMP concentration (drug displacement): dUMP up to 5×
T3 construct: 6xHis (N); made in house; host or cells: E. coli BL21 (DE3)
Method: For these experiments the TS protein was first incubated with each drug, the reaction was then initiated by addition of 5,10-mTHF and dUMP using different concentrations of either 5,10-mTHF or dUMP to change the substrate:drug ratio. If there was competition between one of the substrates and the drug for the same binding site, increasing the substrate concentration will displace more of the pre-bound drug and shift the equilibrium towards the enzyme: substrate complex, thus allowing the conversion of dUMP to proceed (FIG. 5A).
The competitive drug displacement assay utilized the standard reaction conditions for the tritium based TS catalytic activity assay including 40 μM dUMP (Sigma Aldrich, D3876) with the [5-3H]dUMP tracer (ViTrax, VT122) accounting for 0.06% of the final dUMP concentration and 100 μM 5,10-methylene tetrahydrofolate (defined as 1× dUMP and 1×5,10-mTHF). Concentrations of total dUMP and 5,10-mTHF were then changed relative to these 1× concentrations to concisely indicate the changes in either the substrate or cofactor concentration. […] The remaining components in each 200 μL reaction were consistent in all reactions and included 2 μg of purified human TS in 50 mM KH2PO4 (Sigma Aldrich, P0662) and 100 mM β-mercaptoethanol (Sigma Aldrich, M7522).

[3] = tested on: Luc-PANC-1 xenograft tumors; assay: Luc-PANC-1 subcutaneous xenograft tumor model; type: in vivo, NSG mice; conditions: 25 mg/kg oral gavage
Method: Luc-PANC-1 (5×106) and Luc-CM (0.5×106) cells were resuspended in 200 ul of PBS and injected subcutaneously (SQ) or intraperitonially (IP) to 6-8-week-old NSG mice respectively. Tumor bearing mice were imaged using Xenogen IVIS® Lumina Bioluminescence Imaging System (Perkin Elmer) every week after cell injection. At 4 weeks, animals were randomized based on slope of luciferase signal and treatment was initiated. […] For all animals body weight was recorded weekly and Luc-PANC-1 tumor volume was measured weekly with a caliper. For scheduled sacrifice experiments, animals were euthanized after 4 weeks of treatment. […] Harvested tumors were excised and weighted, and fixed in alcoholic formalin (67.5% Ethanol, 10% Formaldehyde 37%, 22.5% water) for pathology analysis. Tumor volume was calculated as [volume=0.52 (length×width2)].
From this stock, the exact volume needed for daily in vivo delivery was then formulated into 95% corn oil (Mazola) at 2 different concentrations: 1.25 mg/mi (formulation 1) and 3.125 mg/ml (formulation 2). To determine the volume of solution administered to the mice, 200 μl (maximum volume to be delivered in mice via IP or oral gavage) was divided by 25 g of mouse body weight. Therefore, 8 μl of formulation 1 or 2 multiplied by the weight of the mice were used to reach a dose of 10 or 25 mg/kg of body weight, respectively.
Prior to bioluminescence imaging the region where tumors were located was shaved. Mice were then anesthetized with 2.5% isoflurane in 02 then administered the D-luciferin substrate (150 mg/kg in PBS) by IP injection. Following the injection of the D-luciferin substrate mice were imaged using the Xenogen IVIS® Lumina Bioluminescence Imaging System (Perkin Elmer). The peak of luciferase photon flux was recorded 6 minutes after injection of the D-luciferin substrate. The total photon flux was analyzed and restricted to tumor ROI (region of interest) using Living Image v2.60.1 software (Imaging Systems).

[4] = Maximum tolerated dose (MTD) study; type: in vivo
Excerpt: After 3 treatment cycles, animals rested (no treatment) for one more week before euthanasia. Body weight and physical status of all mice were closely monitored. Tissues were collected and fixed in alcoholic formalin to test for toxicity.

T3 sequence (P04818 whole entry): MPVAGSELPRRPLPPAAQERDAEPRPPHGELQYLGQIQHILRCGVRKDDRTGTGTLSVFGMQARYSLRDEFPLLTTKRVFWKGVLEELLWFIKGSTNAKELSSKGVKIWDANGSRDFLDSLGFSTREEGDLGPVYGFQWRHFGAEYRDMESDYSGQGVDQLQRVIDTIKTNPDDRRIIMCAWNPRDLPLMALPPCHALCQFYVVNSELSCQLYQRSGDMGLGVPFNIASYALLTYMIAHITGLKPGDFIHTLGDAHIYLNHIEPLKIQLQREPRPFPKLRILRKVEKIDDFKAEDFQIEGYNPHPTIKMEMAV
T1 sequence (P04818 whole entry): as above

## O=c1[nH]cc(F)c(=O)[nH]1 [Compound 5-FU, 5-fluorouracil, reference compound]
CM cells
  GI50: 14.8 µM
BON cells
  IC50: 7.1 µM
[1]
  TS protein expression (steady-state TS levels): induced TS expression

## CCc1nc(N)nc(N)c1-c1ccc(N(C)Cc2ccc(OC)cc2)c([N+](=O)[O-])c1 [Compound 19-S5]
[2]
  inhibition of TS catalytic activity, 19-S series library screen: inhibited TS activity
[2]; listed as 19-55
  TS inhibition at decreasing drug concentrations: greater TS inhibition than both MTX and Pen
[2]; listed as 19-85
  TS inhibition at decreasing drug concentrations: both strong TS and DHFR inhibition
MIA PaCa-2 cells
  GI50: 0.2 to 0.84 µM
DHFR
  DHFR inhibition at reduced inhibitor concentrations: both strong TS and DHFR inhibition
Human TS
  dUMP conversion with increasing 5,10-mTHF concentration (drug displacement): increased the amount of dUMP conversion
  dUMP conversion with increasing dUMP concentration (drug displacement): the amount of dUMP conversion did not increase

## CCc1nc(N)nc(N)c1-c1ccc(N(C)Cc2ccc3c(c2)OCO3)c([N+](=O)[O-])c1 [Compound 19-S7]
[2]
  inhibition of TS catalytic activity, 19-S series library screen: inhibited TS activity
  TS inhibition at decreasing drug concentrations: greater TS inhibition than both MTX and Pen; also recorded: both strong TS and DHFR inhibition
MIA PaCa-2 cells
  GI50: 0.2 to 0.84 µM
[3]; 4 cycles
  adverse effects / body weight: did not show adverse effects or declines in body weight
[3]; 4 cycles (FIGS. 7A-7H)
  tumor progression (photon flux, tumor volume, excised tumor mass): inhibited tumor progression
[4]; 50 mg/kg PO, n=3 (FIG. 16B)
  mortality: found dead after 12th (n=1) and 15th (n=2) dose
[4]; PO, NSG mice (FIGS. 16A-16B)
  MTD: 25 mg/kg
DHFR
  DHFR inhibition at reduced inhibitor concentrations: both strong TS and DHFR inhibition
Human TS
  dUMP conversion with increasing 5,10-mTHF concentration (drug displacement): increased the amount of dUMP conversion
  dUMP conversion with increasing dUMP concentration (drug displacement): the amount of dUMP conversion did not increase

## CCc1nc(N)nc(N)c1-c1ccc(NCCOCCOCCN)c([N+](=O)[O-])c1 [Compound 19-S10]
DHFR; 1 μM (FIG. 4B)
  inhibition of DHFR activity, 19-S series library screen: exception

## O=c1[nH]c(=O)n([C@@H]2O[C@H](CO)[C@@H](O)[C@H]2O)cc1F [FUrd, 5-fluorouridine, reference compound]
[2]
  TS activity (conversion of dUMP): inactive

## O=c1[nH]c(=O)n([C@H]2C[C@H](O)[C@@H](CO)O2)cc1F [FdUrd, 5-fluoro-2′-deoxyuridine, reference compound]
[2]
  TS activity (conversion of dUMP): reduced conversion of dUMP
Human TS
  dUMP conversion with increasing dUMP concentration (drug displacement): did not show drug displacement

## CN(Cc1cnc2nc(N)nc(N)c2n1)c1ccc(C(=O)N[C@@H](CCC(=O)O)C(=O)O)cc1 [MTX, methotrexate, reference compound]
MIA PaCa-2 cells
  GI50: > 350 µM

## Nc1nc2[nH]cc(CCc3ccc(C(=O)N[C@@H](CCC(=O)O)C(=O)O)cc3)c2c(=O)[nH]1 [Pem, pemetrexed, reference compound]
[2]
  TS inhibition at decreasing drug concentrations: greater TS inhibition than the MTX antifolate
MIA PaCa-2 cells
  GI50: > 350 µM
DHFR
  DHFR inhibition at reduced inhibitor concentrations: less effective against DHFR
Human TS
  dUMP conversion with increasing 5,10-mTHF concentration (drug displacement): increased the dUMP conversion
  dUMP conversion with increasing dUMP concentration (drug displacement): did not increase dUMP conversion
